What all share (assay): DTP human tumour cell line panel, 48 h
Assay [1] deals with SW-620 colon.
Assay [2] relates to MDA-MB-231 breast.
The test system of assay [3] is HCT-15 colon.
The subject of assay [4] is SK-MEL-2 melanoma.
The subject of assay [5] is M14 melanoma.
Assay [6] has as its system SN12C renal.
The subject of assay [7] is MCF7 breast.
The subject of assay [8] is OVCAR-3 ovarian.
For assay [9], the system named is SNB-75 CNS.
Assay [10] deals with MDA-MB-435.

Where “and” joins values, the source holds several entries; their conditions need not be identical. Identical values can stand only once.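 Where inhibition never reached the appropriate level, the endpoint shown equals the highest concentration tested. Otherwise, values were interpolated linearly from a five-concentration, 48-hour dose response in 96-well plates. GI50 is the concentration that inhibits growth by half. TGI: total growth inhibition.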 A value given as a limit tells only on which side of the number the result lay.

Usually GI50 stands for the concentration that inhibits growth by half. What is called TGI is the concentration at which net growth stops. A high value points to lower sensitivity of the cells.

Consider `CC(C)CCCCCCCCCCCCC(=O)NCC(=O)NC1C(O)C(O)C(Nc2ncnc3nc[nH]c23)OC1C(O)CO` (centres undefined), for which the GI50 in assay [1] was 0.000756 µM and 0.005 µM; in [2], < 0.01 nM; in [3], 0.00599 µM and 0.0249 µM; in assay [4] it was < 1e-05 µM; in [5], < 0.01 nM; in assay [6], 0.00574 µM and 0.005 µM. Also, the GI50 in [7] is 0.00287 µM and 0.0113 µM; in assay [9] it was < 0.01 nM; in assay [10], < 0.01 nM. In addition, the TGI was 0.38 µM in assay [2]; 0.896 µM and 1.1 µM in assay [3]; 0.0117 µM and 0.0389 µM and 0.0107 µM in assay [4]; 0.0729 µM and 0.0145 µM in assay [6]; 0.394 µM and 0.352 µM in assay [7]; 0.00189 µM and 0.00279 µM and 0.00509 µM in assay [8].

For `O=C1/C(=C/c2ccc(Cl)cc2)CNC/C1=C\c1ccc(Cl)cc1`, the 50% growth inhibitory concentration (GI50) in assay [1] is 0.381 µM; in [4], 4.92 µM and 14.5 µM. In addition, the TGI in assay [2] is > 100 µM; in assay [3] it was 2.6 µM; in assay [4] it was 28.4 µM and 43.2 µM; in assay [5], 8.7 µM; in assay [6], 6.38 µM and 14.3 µM; in assay [7], 21.2 µM. For the same molecule, the TGI is 4.87 µM and 4.9 µM in assay [8]; 10.3 µM and > 29.5 µM in assay [9]; 13.7 µM in [10].

Take `O=C(c1ccc(Cl)cc1)C(O)c1ccc(Cl)cc1` (centres undefined): the TGI in assay [1], in assay [2], in assay [3], in assay [4], in [5] and in assay [6] was > 100 µM each time. The TGI in [7], in assay [8], in [9] and in assay [10] was > 100 µM throughout.

As for `CCNC(=O)Oc1ccc(/C(=C(/C)Cc2ccc(OC)cc2)c2ccc(OCCN(CC)CC)cc2)cc1`, the GI50 was 1.81 µM in assay [1]; 1780 nM in assay [2]; 1.51 µM in assay [3]; 1.85 µM in assay [4]; 1720 nM in assay [5]; 1.93 µM in assay [6]. Moreover, the GI50 in assay [7] was 0.621 µM; in assay [8], 1.69 µM; in assay [9] it was 1690 nM; in assay [10], 1670 nM. In addition, the TGI came to 3.46 µM in assay [1]; 3.38 µM in [2]; 3.06 µM in assay [3]; 3.62 µM in assay [4]; 3.62 µM in assay [5]; 3.82 µM in [6]. In addition, the TGI in assay [7] was 2.41 µM; in [8], 3.34 µM; in assay [9], 4.93 µM; in assay [10], 3.18 µM.

For `Cn1c2c(c3ccccc31)CCN1C(=O)CCC21` (centres undefined), the TGI in [1], in assay [2], in assay [3], in [4], in assay [5] and in assay [6] was > 10 µM each time. Moreover, the TGI in assay [7], in [8], in assay [9] and in [10] was > 10 µM each time.

Turning to `CCCCCCCCCC[C@H](O)[C@H](O)CC[C@@H](O)[C@H]1CC[C@@H]([C@H]2CC[C@H](CCCCCCC[C@@H](O)CC3=C[C@H](C)OC3=O)O2)O1`, the GI50 in assay [1] was 47.2 µM; in assay [2], 19400 nM; in assay [3], 23.8 µM; in assay [4] it was 27 µM; in assay [5] it was 23100 nM; in assay [6] it was 25.3 µM. The GI50 is 19.2 µM in [7], 11.8 µM in [8], 25800 nM in assay [9] and 28700 nM in assay [10]. Moreover, the TGI is > 100 µM in [1]; 7.79 µM and 69.2 µM in [2]; > 100 µM in assay [3]; 58.4 µM in assay [5]; 74.8 µM in assay [6]; 77.6 µM in [7]. The total growth inhibition concentration (TGI) in assay [8] was 3.42 µM and 30.9 µM; in assay [9] it was 98.2 µM.

For the molecule `CC(=O)[C@H]1CCC/C=C/[C@@H]2C[C@H](O)C[C@H]2[C@H](O)/C=C/C(=O)O1`, the GI50 was 0.344 µM in [1]; 487 nM in [2]; 1.05 µM in [3]; 0.689 µM in assay [4]; 467 nM in [5]; 2.17 µM in assay [6]. Besides, the GI50 was 0.363 µM in assay [7], 0.393 µM in [8], 237 nM in assay [9] and 428 nM in [10]. The TGI in [1] is 1.56 µM; in assay [2], 2.39 µM; in assay [3] it was > 44.7 µM; in [4], 2.91 µM; in assay [5] it was > 25.2 µM; in [6], > 100 µM. The TGI in assay [7] is 5.81 µM; in [8], 5.01 µM; in assay [9], > 100 µM; in assay [10], > 100 µM.

In the case of `Cc1cc(C)c(-c2c(N)cc(Br)cc2Br)c(N)c1`, the GI50 in assay [1] is 3.93 µM; in [2] it was 4850 nM; in assay [3], 4.7 µM; in assay [4] it was 3.95 µM; in assay [5], 4400 nM; in assay [6], 7.41 µM. The GI50 in assay [7] was 4.03 µM; in assay [8], 3.09 µM; in [9], 2480 nM; in [10], 2290 nM. The concentration for total growth inhibition (TGI) stood at 16 µM in [1]; 19 µM in assay [2]; 17.3 µM in assay [3]; 14.1 µM in assay [4]; 15.7 µM in assay [5]; 21.9 µM in assay [6]. Besides, the TGI came out at 13.8 µM in assay [7], 8.74 µM in assay [8], 10.1 µM in [9] and 7.37 µM in [10].
